Results from US6858589B2, “Methods of and compositions for potentiating the action of agents active on cell wall sites of the susceptible bacteria” (priority 1996, dated 2005).
Converted amounts (≈) assume the structure as drawn. Like-named read-outs stand apart in the source and are kept apart here.

Experiments:
[1] = test system: blood culture isolate of cMRSA; experiment: MIC and MBC for the cMRSA isolate; format: cell-based, Staphylococcus aureus; settings: mecA positive
Procedure: The student test was used for statistical analysis with a significant level of 0.05, it was performed using the Sigma Stat 32 program (SPSS Inc 1992-1997).

[2] = test system: Pseudomonas aeruoginosa, ATCC27853; experiment: MIC, Pseudomonas reference strain; format: cell-based, Pseudomonas aeruginosa
[3] = test system: antibiotic resistant strain of Pseudomonas aeruoginosa isolated from a clinical patient; experiment: MIC, antibiotic resistant clinical Pseudomonas strain; format: cell-based, Pseudomonas aeruginosa
[4] = test system: Pseudomonas aeruoginosa, ATCC27853; experiment: Tobramycin concentration-time profile kill study, reference strain; format: cell-based, Pseudomonas aeruginosa; settings: 8 mg/l at 1 hour, reducing until 8.5 hr, then fixed 0.8 mg/l for 16 hours
Procedure: (§1) The range of aminoglycoside antibiotics was extended to include tobramycin, the bacterial species type was extended from Enterobacteriaceae to Pseudomonacea, and the organism response range broadened to include an antibiotic resistant strain in Pseudomonas studies.
(§2) In contrast, the resistant clinical strain required a peak concentration of 18 mg/l combined with a maintained level of 1 mg/l.

[5] = test system: antibiotic resistant strain of Pseudomonas aeruoginosa isolated from a clinical patient; experiment: Tobramycin concentration-time profile kill study, resistant clinical strain; format: cell-based, Pseudomonas aeruginosa
Procedure: The time boundaries for maintained exposures with aminoglycoside may be 1.0-16 hours, while the required maintained concentrations will be a function of the resistance of the organism as determined by the minimum inhibitory concentration (MIC) of the pathogen isolated in culture and time-concentration requirements of the organism(s) being treated.
as §1, §2

E. coli NCTC 10418 = experiment: E. coli exposed to constant concentrations of cephazolin alone; format: cell-based, Escherichia coli
Excerpt: In comparative experiments described in the examples herein, a reference strain of Escherichi coli (E. coli NCTC 10418) was exposed to constant concentrations of cephazolin in the culture medium (see FIGS. 1A and IIA). As these concentrations were varied, the growth of the bacterial culture was changed. […] As concentrations in the medium were increased, there was a major decline in numbers and a delay in regrowth.
The organisms in the media were able to maintain their numbers in a reduced state even in the continuing presence of cephazolin. This outcome is due to the exclusion of cephalosporins by porin channels in the outer cell wall and to the action of cephalosporinase which keeps cephazolin levels at the site(s) of action below that required for full bactericidal effect.
The cephalosporin effect reached a maximum when E. coli growth was reduced to 10 colony forming units(cfu)/ml (see FIG. IIB).

[6] = test system: blood culture isolate of cMRSA; experiment: Kill kinetics and regrowth patterns of cMRSA exposed to gentamicin profiles and constant beta-lactam; format: cell-based, Staphylococcus aureus; settings: for Outcome of exposure: each agent alone
Procedure: FIGS. 5a and 5b Kill kinetics and regrowth patterns of a clinical isolate of cMRSA.
The CMRSA isolate was cultured in the presence of gentamicin (Delta West, Bentleigh, Australia). An overnight culture of cMRSA in brain heart infusion broth (BHIB) (Oxoid, Bainstoke, England) was diluted to 10^7 CFU/ml in 0.1% peptone water (Oxoid, Bainstoke, England). A 1 ml sample of the 10^7 CFU/ml culture was added to the experimental culture broth, resulting in an initial density of 10^6 CFU/ml. In vitro concentration-time modeling of clinical plasma gentamicin concentration-time profiles assumed linear extrapolation of in vivo data as reported previously.^18 (Bastone et al Antimicrobial Agents and Chemotherapy 37(4): 914-917, 1993). […] Other profiles were constructed by linear extrapolation of these profiles and included 7 and 16 mg/l bolus and infusion profiles. Colony counts were performed at times 0, 0.5, 2.5, 4.5, 6.5, 8.5, 10.5, 24.5 and 48.5 hours for bolus profiles and times 0, 1, 3, 5, 7, 9, 11, 25 and 49 hours for infusion profiles.
In the experiments involving cephazolin the concentration was maintained at 4 mg/l in the BHIB for the entire 48.5 hours. For the experiments involving flucloxacillin the concentration of flucloxacillin was maintained at 2 mg/l for 48.5 hours. Colony counts were performed at times 0, 0,5, 2.5, 4.5, 6.5, 8.5, 10.5, 24.5 and 48.5 hours. […] These included cMRSA in a drug free broth, cMRSA exposed to a bolus profile of gentamicin with a target Cpeak 30 of 6 mg/l only, cMRSA exposed to […] of flucloxacillin only.
All experiments involved six replicates. Gentamicin concentrations were measured at times 0, 0.16, 0.33, 0.5, 2.5, 4.5, 6.5, 8.5, 10.5, 24.5 and 48.5 hours. Gentamicin assay concentrations were determined by fluorescence polarisation immunoassay (AxSYM, Abbot, Ill., U.S.A.) which has a threshold for detection of 0.3 mg/liter. […] (Gibaldi et al, pharmaceutics 2nd edn, 1982).
The blood culture cMRSA isolate was exposed to gentamicin in vitro simulating an in vivo bolus dosing regimen with varying 30 minute post dose concentrations of gentamicin. The same organism was then exposed to gentamicin in vitro simulating an in vivo bolus dosing regime with a 30 minute post dose concentration of 6 mg/l and constant concentration of 4 mg/l of cephazolin or 2 mg/l of flucloxacillin for 48 hours.

[7] = 4 mg/l cephazolin alone throughout

Compound: COc1cccc(OC)c1C(=O)N[C@@H]1C(=O)N2[C@@H]1SC(C)(C)[C@@H]2C(=O)O [methicillin]
- MBC ([1]; Staphylococcus aureus, read-out: MBC): > 32 µg/mL
- MIC ([1]; Staphylococcus aureus, read-out: MIC): 32 µg/mL (≈ 84.1 µM)

Compound: NC[C@H]1O[C@H](O[C@H]2[C@H](O)[C@@H](O[C@H]3O[C@H](CO)[C@@H](O)[C@H](N)[C@H]3O)[C@H](N)C[C@@H]2N)[C@H](N)C[C@@H]1O [tobramycin]
- MIC [2]: 1 µg/mL (≈ 2.14 µM)
- MIC [3]: 2 to 4 µg/mL (≈ 4.28 to 8.56 µM)
- Outcome of tobramycin profile [4]: complete kill
- Maintained level required ([5]; combined with 18 mg/l peak): 1 mg/L
- Peak concentration required ([5]; combined with maintained level): 18 mg/L

Compound: Cc1nnc(SCC2=C(C(=O)O)N3C(=O)[C@@H](NC(=O)Cn4cnnn4)[C@H]3SC2)s1 [cephazolin]
- Outcome of exposure (E. coli NCTC 10418; cephalosporin alone, constant concentrations): not possible to produce a complete kill or eradication
- E. coli growth at maximum cephalosporin effect (E. coli NCTC 10418; constant concentrations of cephalosporin alone, up to 250 mg/l): 10 cfu/ml
- Growth of the culture (E. coli NCTC 10418; lowest concentration of cephazolin, 1.0 mg/l): delayed in relation to control
- Bacterial Count (E. coli NCTC 10418; maintained cephazolin 0.5 mg/L, 0 h): 5.88 ± 0.09 log 10 u/mL
- Bacterial Count (E. coli NCTC 10418; maintained cephazolin 0.5 mg/L, 2 h): 7.43 ± 0.28 log 10 u/mL
- Bacterial Count (E. coli NCTC 10418; maintained cephazolin 0.5 mg/L, 8 h): 8.67 ± 0.24 log 10 u/mL
- Bacterial Count (E. coli NCTC 10418; maintained cephazolin 0.5 mg/L, 24 h): 8.82 ± 0.06 log 10 u/mL
- Bacterial Count (E. coli NCTC 10418; maintained cephazolin 1.0 mg/L, 0 h): 5.83 ± 0.29 log 10 u/mL
- Bacterial Count (E. coli NCTC 10418; maintained cephazolin 1.0 mg/L, 2 h): 6.21 ± 0.76 log 10 u/mL
- Bacterial Count (E. coli NCTC 10418; maintained cephazolin 1.0 mg/L, 8 h): 8.59 ± 0.35 log 10 u/mL
- Bacterial Count (E. coli NCTC 10418; maintained cephazolin 1.0 mg/L, 24 h): 8.79 ± 0.05 log 10 u/mL
- Bacterial Count (E. coli NCTC 10418; maintained cephazolin 2.0 mg/L, 0 h): 5.88 ± 0.07 log 10 u/mL
- Bacterial Count (E. coli NCTC 10418; maintained cephazolin 2.0 mg/L, 2 h): 3.70 ± 0.32 log 10 u/mL
- Bacterial Count (E. coli NCTC 10418; maintained cephazolin 2.0 mg/L, 8 h): 4.98 ± 0.34 log 10 u/mL
- Bacterial Count (E. coli NCTC 10418; maintained cephazolin 2.0 mg/L, 24 h): 8.79 ± 0.05 log 10 u/mL
- Bacterial Count (E. coli NCTC 10418; maintained cephazolin 4.0 mg/L, 0 h): 5.88 ± 0.06 log 10 u/mL
- Bacterial Count (E. coli NCTC 10418; maintained cephazolin 4.0 mg/L, 2 h): 3.61 ± 0.22 log 10 u/mL
- Bacterial Count (E. coli NCTC 10418; maintained cephazolin 4.0 mg/L, 8 h): 4.38 ± 0.42 log 10 u/mL
- Bacterial Count (E. coli NCTC 10418; maintained cephazolin 4.0 mg/L, 24 h): 6.14 ± 0.93 log 10 u/mL
- Bacterial Count (E. coli NCTC 10418; maintained cephazolin 12.5 mg/L, 0 h): 5.85 ± 0.14 log 10 u/mL
- Bacterial Count (E. coli NCTC 10418; maintained cephazolin 12.5 mg/L, 2 h): 3.11 ± 0.26 log 10 u/mL
- Bacterial Count (E. coli NCTC 10418; maintained cephazolin 12.5 mg/L, 8 h): 2.18 ± 0.63 log 10 u/mL
- Bacterial Count (E. coli NCTC 10418; maintained cephazolin 12.5 mg/L, 24 h): 4.77 ± 1.89 log 10 u/mL
- Bacterial Count (E. coli NCTC 10418; maintained cephazolin 50 mg/L, 0 h): 5.93 ± 0.11 log 10 u/mL
- Bacterial Count (E. coli NCTC 10418; maintained cephazolin 50 mg/L, 2 h): 2.17 ± 0.39 log 10 u/mL
- Bacterial Count (E. coli NCTC 10418; maintained cephazolin 50 mg/L, 8 h): 1.55 ± 0.93 log 10 u/mL
- Bacterial Count (E. coli NCTC 10418; maintained cephazolin 50 mg/L, 24 h): 1.56 ± 1.14 log 10 u/mL
- Bacterial Count (E. coli NCTC 10418; maintained cephazolin 75 mg/L, 0 h): 5.82 ± 0.23 log 10 u/mL
- Bacterial Count (E. coli NCTC 10418; maintained cephazolin 75 mg/L, 2 h): 2.09 ± 0.29 log 10 u/mL
- Bacterial Count (E. coli NCTC 10418; maintained cephazolin 75 mg/L, 8 h): 1.11 ± 0.96 log 10 u/mL
- Bacterial Count (E. coli NCTC 10418; maintained cephazolin 75 mg/L, 24 h): 1.05 ± 1.23 log 10 u/mL
- Bacterial Count (E. coli NCTC 10418; maintained cephazolin 100 mg/L, 0 h): 5.85 ± 0.08 log 10 u/mL
- Bacterial Count (E. coli NCTC 10418; maintained cephazolin 100 mg/L, 2 h): 2.01 ± 0.26 log 10 u/mL
- Bacterial Count (E. coli NCTC 10418; maintained cephazolin 100 mg/L, 8 h): 0.86 ± 0.95 log 10 u/mL
- Bacterial Count (E. coli NCTC 10418; maintained cephazolin 100 mg/L, 24 h): 0.70 ± 0.78 log 10 u/mL
- Bacterial Count (E. coli NCTC 10418; maintained cephazolin 200 mg/L, 0 h): 5.86 ± 0.04 log 10 u/mL
- Bacterial Count (E. coli NCTC 10418; maintained cephazolin 200 mg/L, 2 h): 2.16 ± 0.24 log 10 u/mL
- Bacterial Count (E. coli NCTC 10418; maintained cephazolin 200 mg/L, 8 h): 0.78 ± 0.87 log 10 u/mL
- Bacterial Count (E. coli NCTC 10418; maintained cephazolin 200 mg/L, 24 h): 1.43 ± 0.74 log 10 u/mL
- Bacterial Count (E. coli NCTC 10418; maintained cephazolin 250 mg/L, 0 h): 5.81 ± 0.03 log 10 u/mL
- Bacterial Count (E. coli NCTC 10418; maintained cephazolin 250 mg/L, 2 h): 1.82 ± 0.44 log 10 u/mL
- Bacterial Count (E. coli NCTC 10418; maintained cephazolin 250 mg/L, 8 h): 1.22 ± 0.96 log 10 u/mL
- Bacterial Count (E. coli NCTC 10418; maintained cephazolin 250 mg/L, 24 h): 1.61 ± 0.86 log 10 u/mL
- MBC [1]: 32 µg/mL (≈ 70.4 µM)
- MIC [1]: 32 µg/mL (≈ 70.4 µM)
- Time at which early bactericidal effect was evident [6, 7]: ≤ 2.5 h
- Time at which regrowth was evident [6, 7]: 24.5 h
- Outcome of exposure [6]: complete kill or eradication was not achieved

Compound: Cc1onc(-c2c(F)cccc2Cl)c1C(=O)N[C@@H]1C(=O)N2[C@@H]1SC(C)(C)[C@@H]2C(=O)O [flucloxacillin]
- Outcome of exposure [6]: complete kill or eradication was not achieved
